Reference: patent US8586609B2, “Aryl-substituted polycyclic amines, method for the production thereof, and use thereof as a medicament” (Sanofi-Aventis Deutschland GmbH, priority 2004, dated 2013)

Test system: female NMRI mice
Assay: Anorectic effect: reduction in cumulative milk consumption of treated compared with control animals
Assay type: in vivo
Conditions: oral dose 30 mg/kg by gavage; female NMRI mice after withdrawal of feed for 17 hours; condensed milk consumption determined every half hour for 7 hours
Description: The anorectic effect was tested on female NMRI mice. After withdrawal of feed for 17 hours, the test product was administered by gavage. The animals were housed singly with free access to drinking water and were offered condensed milk 30 minutes after administration of the product. The condensed milk consumption was determined every half hour for 7 hours, and the general wellbeing of the animals was observed. The measured milk consumption was compared with the vehicle-treated control animals.

CN1C[C@H]2CCN(c3ccc(NC(=O)N4CCC(c5ccc(Cl)cc5)CC4)cc3)[C@H]2C1 (stereo in doubt) [Example 9, 4-(4-Chlorophenyl)piperidine-1-carboxylic acid [4-(5-methylhexahydropyrrolo[3,4-b]pyrrol-1-yl)phenyl]amide]
Reduction in cumulative milk consumption as % of the control: 82 % of the control
